Experiment [1] deals with T1, KRAS-G12C mutant (Homo sapiens, UniProt P01116, G12C). Kind of experiment: Gel shift assay (SDS-PAGE) for covalent modification of KRAS G12C. As to conditions: 0.5 μM compound, 1 μM GDP-bound KRAS G12C, 25° C., 5 minutes, shift indicative of covalent cysteine conjugation. The experiment is classed as binding. An outline of the steps: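 Compounds at 0.5 μM were incubated with 1 μM GDP-bound untagged KRAS G12C or wild type for 5 minutes at 25° C in Tris pH 7.5, NaCl, MgCl2, DTT buffer. Reactions were quenched in SDS loading buffer and run on 4%-20% SDS-PAGE with Coomassie stain. Band mobility shift was taken as covalent cysteine conjugation.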

For experiment [2], the target named is T1, KRAS-G12C mutant. Nature of the experiment: TR-FRET assay of SOS1-assisted KRAS GDP/GTP exchange. Format: biochemical. The gist of the method: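 His-tagged GDP-KRAS-G12C (40 nM) preincubated 1 h at 4° C with 8 nM Tb-anti-His in Tris pH 7.5, 1 mM MgCl2, 2% DMSO; compounds added, then BODIPY-GTP (200 nM) and SOS-1 (1 μM) to start exchange. TR-FRET 520/620 nm ratio, SOS-free background subtracted; % inhibition versus DMSO, IC50 by variable-slope nonlinear regression.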

Experiment [3] concerns phospho-ERK1/2 (Thr202/Tyr204) in MIA PaCa-2 cell line. Kind of experiment: pERK and ERK Western blot analysis, MIA PaCa-2. Format: cell-based. Conditions: Homo sapiens. The gist of the method: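 Cells were seeded at 2×10^5 cells/well in RPMI with 10% FBS and treated next day with compound from 1000× DMSO stocks for 4 h at 37° C. Lysates were immunoblotted for phospho-p44/42 and total Erk1/2 with infrared-dye secondaries, and bands were quantified by densitometry.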

The subject of the next experiment is MIA PaCa-2 cell line. Nature of the experiment: 3D cell growth assay (CellTiter-Glo), MIA PaCa-2. As to conditions: Homo sapiens, MIA PaCa-2, 144 h, 6 days, read-out: 3D growth inhibition GI50. Format: cell-based. How it is done: (§1) MIA PaCa-2 (ATCC), NCI-H358 (ATCC), NCI-H23 (ATCC), SW837 and A549 (ATCC) cells were plated in round bottom 96-well spheroid microplates (Corning, 4520) at 3000 cells/well in 90 ul of RPMI growth medium containing 10% FBS and 1% Penicillin Streptomycin. Cells were incubated at 37° C. overnight. The following day, the test compound was administered to the cells by using 10× compound stock solution prepared in growth medium at various concentrations. After administration of the compound, cells were then incubated at 37° C. for 6 days. Before CellTiter-Glo assay, the plates were equilibrated at room temperature for approximately 10 minutes. 100 ul of CellTiter-Glo® Reagent (Promega, G7573) was added to each well. The plates were then incubated at room temperature for 10 minutes and luminescence was recorded by EnSpire plate reader (PerkinElmer). Table 6 illustrates growth inhibition (G150) by exemplary compounds 1-10 of the present disclosure in a MIA PaCa-2 cell line 6 days after administration in 3D cell culture. A: >0.1 nM and <1 nM; B: >=1 nM and <10 nM; C: >=10 nM and <100 nM; D: >100 nM.

Experiment [4] deals with phospho-ERK1/2 (Thr202/Tyr204) in NCI-H23 cells. Nature of the experiment: pERK and ERK Western blot analysis, NCI-H23. As to conditions: Homo sapiens; NCI-H23, KRAS G12C, 4 hours. The experiment is classed as cell-based. Here is the method: (§2) MIA PaCa-2 (ATCC), NCI-H358 (ATCC), NCI-H23 (ATCC), SW837 and A549 (ATCC) cells were plated in 24-well plates at 2×10^5cells/well in RPMI growth medium containing 10% FBS and 1× Penicillin Streptomycin. They were then incubated at 37° C. overnight. The following day, the test compound was administered to the cells by using 1000× compound stock solution prepared in DMSO at various concentrations. After administration of the compound, the cells were then incubated at 37° C. for 4 hours. Upon completion, the cells were washed with PBS and protein was collected in Laemmli sample buffer (1×; VWR International). Proteins in cell lysate were separated by SDS-PAGE and transferred to Odyssey nitrocellulose membranes (Licor) with iblot® dry blotting transfer system (ThermoFisher). Nonspecific binding was blocked by incubating membranes with Intercept Blocking Buffer (Licor) for 1 hour at room temperature with gentle shaking. The membranes were then incubated overnight at 4° C. with primary antibodies rabbit anti-phospho p44/42 MAPK (Erk1/2) (1:2,000, Cell Signaling, 4370) and mouse anti-p44/42 MAPK (Erk1/2) (1:1,000, Cell Signaling, 4696) diluted in Intercept Blocking Buffer containing 0.1% Tween 20. […] The bands were quantified using Image Studio™ Software (Licor).

Experiment [5] relates to phospho-ERK1/2 (Thr202/Tyr204) in NCI-H358 cells. Nature of the experiment: pERK and ERK Western blot analysis, NCI-H358. The experiment is classed as cell-based. As to conditions: Homo sapiens; NCI-H358, KRAS G12C, 4 hours. How it is done: as §2
Experiment [6] relates to phospho-ERK1/2 (Thr202/Tyr204) in SW837 cells. Kind of experiment: pERK and ERK Western blot analysis, SW837. Format: cell-based. Conditions: Homo sapiens; SW837, KRAS G12C, 4 hours. How it is done: as §2
In experiment [7] the test system is phospho-ERK1/2 (Thr202/Tyr204) in A549 cells. Kind of experiment: pERK and ERK Western blot analysis, A549. As to conditions: Homo sapiens; A549, KRAS G12S, 4 hours. Format: cell-based. How it is done:
as §2

A further experiment concerns NCI-H23 cells. Nature of the experiment: 3D cell growth assay (CellTiter-Glo), NCI-H23. Format: cell-based. Conditions: Homo sapiens, 144 h, NCI-H23, KRAS G12C, 6 days, read-out: 3D growth inhibition GI50. Here is the method: as §1
The subject of the next experiment is NCI-H358 cells. Nature of the experiment: 3D cell growth assay (CellTiter-Glo), NCI-H358. As to conditions: Homo sapiens, 144 h, NCI-H358, KRAS G12C, 6 days, read-out: 3D growth inhibition GI50. The experiment is classed as cell-based. How it is done: as §1
In a further experiment the test system is SW837 cells. Kind of experiment: 3D cell growth assay (CellTiter-Glo), SW837. Format: cell-based. As to conditions: Homo sapiens, 144 h, SW837, KRAS G12C, 6 days, read-out: 3D growth inhibition GI50. Here is the method: as §1
The next experiment concerns A549 cells. Nature of the experiment: 3D cell growth assay (CellTiter-Glo), A549. The experiment is classed as cell-based. Conditions: Homo sapiens, 144 h, A549, KRAS G12S, 6 days, read-out: 3D growth inhibition GI50. Here is the method: as §1
The mark [8] stands for this setting: MIA PaCa-2 cell line, 4 hours after incubation, read-out: 2D pERK IC50.
The mark [9] stands for this setting: MIA PaCa-2 cell line, 3D cell culture.
The mark [10] stands for this setting: MIA PaCa-2, MiaPaCa2, KRAS G12C, 4 hours, read-out: pERK IC50.

Where two headings read alike, the source gives them in different places. A value given as a limit tells only on which side of the number the result lay.

For `C=C(F)C(=O)N1CCN(c2nc(OCC34CCCN3CCC4)nc3c2COC(c2cccc4cccc(C)c24)C3)C[C@@H]1CC#N` (stereo partly drawn) [Compound 56, 2-((2S)-1-(2-fluoroacryloyl)-4-(7-(8-methylnaphthalen-1-yl)-2-((tetrahydro-1H-pyrrolizin-7a(5H)-yl)methoxy)-7,8-dihydro-5H-pyrano[4,3-d]pyrimidin-4-yl)piperazin-2-yl)acetonitrile], the “KRAS-G12C molecular weight shift” value at KRAS-G12C mutant [1] is “Yes”. Besides, the IC50 is 70 nM at KRAS-G12C mutant [2] and 10 to 100 nM in [3] (setting [8]). For the same compound, in the experiment on MIA PaCa-2 cell line (setting [9]), the GI50 lay in the range of 1 to 10 nM.

As to `C=C(F)C(=O)N1CCN(c2nc(OCC34CCCN3CCC4)nc3c2CO[C@H](c2cccc4cccc(Cl)c24)C3)C[C@@H]1CC#N` (single isomer, unassigned) [Compound 55], at KRAS-G12C mutant [1], the “KRAS-G12C molecular weight shift” value is on record as “Yes”. Moreover, the IC50 on KRAS-G12C mutant [2] is 22 nM; in experiment [3] (setting [10]), 10.1 nM; in experiment [3] (setting [8]) it was 1 to 10 nM; in experiment [4], 6.4 nM; in [5], 12 nM; in experiment [6], 5.9 nM. In experiment [7], the IC50 was greater than 30000 nM. Moreover, the GI50 is 0.1 to 1 nM with MIA PaCa-2 cell line (setting [9]); 0.8 nM in the experiment on MIA PaCa-2 cell line (MiaPaCa2, KRAS G12C, 3D); 8.4 nM in the experiment on NCI-H23 cells; 0.7 nM in the experiment with NCI-H358 cells; 8.6 nM with SW837 cells; greater than 300 nM in the experiment with A549 cells.

On to `C=C(F)C(=O)N1CCN(c2nc(OC[C@@]34CCCN3C[C@H](F)C4)nc3c2CO[C@H](c2cccc4cccc(Cl)c24)C3)C[C@@H]1CC#N` [Compound 64, 2-((S)-4-((S)-7-(8-chloronaphthalen-1-yl)-2-(((2R,7aS)-2-fluorotetrahydro-1H-pyrrolizin-7a(5H)-yl)methoxy)-7,8-dihydro-5H-pyrano[4,3-d]pyrimidin-4-yl)-1-(2-fluoroacryloyl)piperazin-2-yl)acetonitrile], for which the “KRAS-G12C molecular weight shift” value on KRAS-G12C mutant [1] is listed as “Yes”. For the same compound, the IC50 against KRAS-G12C mutant [2] is 20 nM; in experiment [3] (setting [10]) it was 2.4 nM; in experiment [3] (setting [8]), 1 to 10 nM; in experiment [4], 1.7 nM; in experiment [5] it was 2.5 nM; in experiment [6] it was 1.2 nM. This compound displayed an IC50 in [7] greater than 30000 nM. In addition, the GI50 is 0.1 to 1 nM in the experiment on MIA PaCa-2 cell line (setting [9]); 0.3 nM in the experiment with MIA PaCa-2 cell line (MiaPaCa2, KRAS G12C, 3D); 2.1 nM with NCI-H23 cells; 0.2 nM in the experiment with NCI-H358 cells; 4.1 nM with SW837 cells; greater than 300 nM with A549 cells.
